# Data taken from ChEMBL document CHEMBL2203227, “Macrocycles are great cycles: applications, opportunities, and challenges of synthetic macrocycles in drug discovery” (J Med Chem, 2011).
# *1 amine or outer side, *2 acyl side, *3 side chain or, on linkers, in order; H or OH if unused. Where a SMILES comes first, the peptide text is derived from it. [ ]: non-standard residue; d: D form. The star is where a group is joined. LeuΨ(S-CHOHCH2)Ala = CC(C)C[C@H](N[*:1])[C@@H](O)C[C@@H](C)C(=O)[*:2]; Hyp = O=C(O)[C@@H]1C[C@@H](O)CN1; Nva = CCC[C@H](N)C(=O)O; Bn = c1ccc(C*)cc1
# Tests used:
# Beta-secretase 1 = Beta-secretase 1 (Homo sapiens, UniProt P56817); experiment: Inhibition of BACE1
# Chain of Beta-secretase 1 (P56817 whole entry): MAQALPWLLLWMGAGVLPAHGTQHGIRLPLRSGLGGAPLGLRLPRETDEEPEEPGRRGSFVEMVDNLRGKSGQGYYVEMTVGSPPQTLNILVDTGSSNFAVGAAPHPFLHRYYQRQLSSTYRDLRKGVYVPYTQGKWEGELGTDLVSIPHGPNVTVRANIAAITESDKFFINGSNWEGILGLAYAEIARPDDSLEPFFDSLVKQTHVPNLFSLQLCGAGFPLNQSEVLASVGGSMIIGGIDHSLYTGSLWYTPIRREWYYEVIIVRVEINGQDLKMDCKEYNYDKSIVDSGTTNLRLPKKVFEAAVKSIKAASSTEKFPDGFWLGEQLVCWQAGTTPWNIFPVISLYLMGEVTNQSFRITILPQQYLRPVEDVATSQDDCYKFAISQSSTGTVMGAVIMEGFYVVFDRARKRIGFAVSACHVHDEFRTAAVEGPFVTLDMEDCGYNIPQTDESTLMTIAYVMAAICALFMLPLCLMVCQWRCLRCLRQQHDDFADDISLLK
# Renin = molecular target: T1, Renin (Homo sapiens, UniProt P00797); experiment: Inhibition of renin
# T1 sequence (P00797 whole entry): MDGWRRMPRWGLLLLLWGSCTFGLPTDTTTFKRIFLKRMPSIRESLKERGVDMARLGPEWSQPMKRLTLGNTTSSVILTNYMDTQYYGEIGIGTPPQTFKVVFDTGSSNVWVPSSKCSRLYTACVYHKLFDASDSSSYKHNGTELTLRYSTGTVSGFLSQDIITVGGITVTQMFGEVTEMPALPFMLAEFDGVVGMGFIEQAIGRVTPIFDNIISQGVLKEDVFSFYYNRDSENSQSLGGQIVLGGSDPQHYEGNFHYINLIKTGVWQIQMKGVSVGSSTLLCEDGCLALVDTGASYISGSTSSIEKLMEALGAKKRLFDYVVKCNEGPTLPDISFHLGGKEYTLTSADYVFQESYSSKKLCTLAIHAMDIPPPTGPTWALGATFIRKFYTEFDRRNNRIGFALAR
# [1] = Inhibition of HDAC by fluorimetry assay
# [2] = Inhibition of FTase
# [3] = Inhibition of HIV protease; set-up: species or system Human immunodeficiency virus
# [4] = Selectivity ratio of IC50 for trypsin to IC50 for thrombin
# [5] = Selectivity ratio of IC50 for tPa to IC50 for thrombin
# [6] = Inhibition of HCV NS3 protease; set-up: species or system Hepacivirus hominis
# Hepatitis C virus [7] = experiment: microbe, parasite or virus in culture
# Description: Antiviral activity against HCV by cell based replicon assay
# [8] = Inhibition of HCV 3a NS3 protease; set-up: species or system Hepatitis C virus subtype 3a
# Hepatitis C virus [9] = experiment: Inhibition of HCV 1b NS3 protease; set-up: species or system Hepatitis C virus subtype 1b
# MCF7 = experiment: cells; conditions: Homo sapiens
# Description: Antiproliferative activity against human MCF7 cells
# Neprilysin = Neprilysin (Homo sapiens, UniProt P08473); experiment: Inhibition of neutral endopeptidase
# Chain of Neprilysin (P08473 whole entry): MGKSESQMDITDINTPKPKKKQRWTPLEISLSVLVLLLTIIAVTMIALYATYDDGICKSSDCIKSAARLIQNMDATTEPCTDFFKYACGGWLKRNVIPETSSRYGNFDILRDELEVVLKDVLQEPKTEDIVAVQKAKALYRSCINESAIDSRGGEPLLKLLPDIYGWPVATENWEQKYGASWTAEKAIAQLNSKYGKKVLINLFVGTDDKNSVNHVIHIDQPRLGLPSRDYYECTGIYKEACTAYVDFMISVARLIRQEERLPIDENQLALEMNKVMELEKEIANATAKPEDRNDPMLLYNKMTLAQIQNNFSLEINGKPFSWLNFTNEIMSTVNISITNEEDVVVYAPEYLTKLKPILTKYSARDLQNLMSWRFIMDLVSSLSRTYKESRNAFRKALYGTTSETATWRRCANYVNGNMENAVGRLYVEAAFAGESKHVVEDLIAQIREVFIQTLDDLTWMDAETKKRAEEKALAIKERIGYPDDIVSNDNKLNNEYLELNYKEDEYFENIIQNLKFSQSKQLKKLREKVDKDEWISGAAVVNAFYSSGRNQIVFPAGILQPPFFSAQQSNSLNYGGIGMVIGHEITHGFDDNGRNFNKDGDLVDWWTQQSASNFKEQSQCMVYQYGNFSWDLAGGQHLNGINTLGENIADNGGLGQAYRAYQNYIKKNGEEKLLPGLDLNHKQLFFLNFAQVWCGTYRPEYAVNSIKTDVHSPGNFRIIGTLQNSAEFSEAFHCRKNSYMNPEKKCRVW
# [10] = molecular target: Angiotensin-converting enzyme (Homo sapiens, UniProt P12821); experiment: Inhibition of ACE
# Chain of Angiotensin-converting enzyme (P12821 whole entry): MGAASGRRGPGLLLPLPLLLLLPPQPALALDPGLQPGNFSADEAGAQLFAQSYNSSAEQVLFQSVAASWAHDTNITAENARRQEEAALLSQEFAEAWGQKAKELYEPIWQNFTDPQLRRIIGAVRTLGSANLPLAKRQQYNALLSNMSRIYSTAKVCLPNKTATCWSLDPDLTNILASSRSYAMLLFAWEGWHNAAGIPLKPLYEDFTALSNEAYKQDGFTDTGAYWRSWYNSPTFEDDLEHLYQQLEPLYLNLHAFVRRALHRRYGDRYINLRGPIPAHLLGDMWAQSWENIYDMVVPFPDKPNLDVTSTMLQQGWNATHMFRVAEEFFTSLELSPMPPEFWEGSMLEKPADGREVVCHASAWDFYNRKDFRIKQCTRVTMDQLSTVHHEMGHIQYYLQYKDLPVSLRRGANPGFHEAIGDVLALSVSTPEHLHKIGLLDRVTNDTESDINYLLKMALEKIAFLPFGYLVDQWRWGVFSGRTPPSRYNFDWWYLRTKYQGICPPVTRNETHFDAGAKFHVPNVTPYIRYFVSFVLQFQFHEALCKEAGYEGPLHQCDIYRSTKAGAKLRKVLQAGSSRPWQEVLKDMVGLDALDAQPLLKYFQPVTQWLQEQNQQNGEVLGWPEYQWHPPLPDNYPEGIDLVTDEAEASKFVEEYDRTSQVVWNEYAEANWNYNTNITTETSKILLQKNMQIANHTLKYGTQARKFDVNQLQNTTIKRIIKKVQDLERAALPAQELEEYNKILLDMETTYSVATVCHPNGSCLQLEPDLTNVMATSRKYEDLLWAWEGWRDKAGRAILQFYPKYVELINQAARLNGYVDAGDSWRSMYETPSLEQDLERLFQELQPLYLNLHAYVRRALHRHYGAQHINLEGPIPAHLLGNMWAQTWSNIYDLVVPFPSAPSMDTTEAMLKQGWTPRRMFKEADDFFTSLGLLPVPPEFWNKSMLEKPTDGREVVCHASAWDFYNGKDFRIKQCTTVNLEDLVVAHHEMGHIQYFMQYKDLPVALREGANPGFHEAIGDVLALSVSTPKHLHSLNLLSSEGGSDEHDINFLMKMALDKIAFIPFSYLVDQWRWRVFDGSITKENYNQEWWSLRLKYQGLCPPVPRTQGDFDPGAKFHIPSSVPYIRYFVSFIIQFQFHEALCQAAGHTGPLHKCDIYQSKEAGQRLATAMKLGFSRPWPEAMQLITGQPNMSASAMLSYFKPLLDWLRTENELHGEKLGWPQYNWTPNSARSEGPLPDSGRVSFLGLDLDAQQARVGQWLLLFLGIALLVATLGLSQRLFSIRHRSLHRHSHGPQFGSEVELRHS
# [11] = molecular target: Growth hormone secretagogue receptor type 1 (Homo sapiens, UniProt Q92847); experiment: Agonist activity at ghrelin receptor; format: functional
# Chain of Growth hormone secretagogue receptor type 1 (Q92847 whole entry): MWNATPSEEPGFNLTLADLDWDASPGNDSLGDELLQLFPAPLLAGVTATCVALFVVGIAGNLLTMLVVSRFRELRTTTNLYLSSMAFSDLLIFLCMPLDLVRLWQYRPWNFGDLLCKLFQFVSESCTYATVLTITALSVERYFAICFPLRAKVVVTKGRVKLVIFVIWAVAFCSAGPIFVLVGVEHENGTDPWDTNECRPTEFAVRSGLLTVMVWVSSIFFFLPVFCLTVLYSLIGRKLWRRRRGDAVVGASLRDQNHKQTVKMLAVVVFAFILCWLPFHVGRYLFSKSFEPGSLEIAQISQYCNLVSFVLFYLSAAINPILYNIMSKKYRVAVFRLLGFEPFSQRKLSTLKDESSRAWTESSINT
# [12] = Inhibition of HCV 1a NS3 protease; set-up: species or system Hepatitis C virus subtype 1a
# [13] = Reversible inhibition of HCV NS3 protease; set-up: species or system Hepacivirus hominis
# Prothrombin = Prothrombin (Homo sapiens, UniProt P00734); experiment: Inhibition of thrombin
compound,measurement,setting,value
CC(C)C[C@H](NC(=O)[C@H](CC(N)=O)NC(=O)[C@H](C)NC(=O)[C@@H](N)CCC(=O)O)[C@@H](O)C[C@@H](C)C(=O)N[C@@H](C)C(=O)N[C@@H](CCC(=O)O)C(=O)N[C@@H](Cc1ccccc1)C(=O)O (H-EAN[LeuΨ(S-CHOHCH2)Ala]AEF-OH),IC50,Beta-secretase 1,1.6 nM
CC[C@H](C)[C@H](NC(=O)[C@@H](NC[C@@H]1COCCCCCCCN(C(=O)[C@H](Cc2ccccc2)NC(=O)OC(C)(C)C)[C@@H](C)C(=O)N1)C(C)C)C(=O)N[C@@H](Cc1cnc[nH]1)C(=O)OC,IC50,Renin,2700 nM
O=C(CCCCCC1C2=NC(Cc3ccccc3)=C(O2)C(Cc2ccccc2)CCn2cc(nn2)CCCN1Cc1ccccc1)NO (stereo not given),IC50,[1],4.3 µM
N#Cc1ccccc1Oc1ccc2cccc(N3CCN(Cc4cnc[nH]4)CC3=O)c2c1,IC50,[2],4.5 µM
COc1ccc(S(=O)(=O)N(CC(C)C)C[C@@H](O)[C@@H]2CCCCCCCCOc3c(O)cccc3C(=O)N2)cc1,IC50,[3],300 nM
same,Ki,[3],0.7 nM
O=C1COc2ccc(Cl)cc2CNC(=O)[C@@H]2CCCN2C(=O)[C@@H](C2CCCCC2)NC(=O)CCCN1,Ratio IC50,[4],> 2000
same,Ratio IC50,[5],> 2000
C=C[C@@H]1C[C@]1(NC(=O)[C@@H]1C[C@@H]2CN1C(=O)[C@H](C(C)(C)C)NC(=O)OCCCCCc1ccc3nc(-c4ccccc4)cc(c3c1)O2)C(=O)NS(=O)(=O)C1CC1,Ki,[6],< 0.016 nM
same,EC50,Hepatitis C virus [7],6.7 nM
COc1cc2nc(-c3ccccc3)cc3c2cc1/C=C/CC(C)(C)COC(=O)N[C@H]1CCCCC/C=C\[C@@H]2C[C@@]2(C(=O)NS(=O)(=O)C2CC2)NC(=O)[C@@H]2C[C@H](CN2C1=O)O3,Ki,[8],1.2 nM
same,Ki,Hepatitis C virus [9],0.029 nM
same,EC50,Hepatitis C virus [7],2 nM
C=C[C@@H]1C[C@]1(NC(=O)[C@@H]1C[C@@H]2CN1C(=O)[C@H](C(C)(C)C)NC(=O)OCCCC/C=C/c1ccc3ccnc(c3c1)O2)C(=O)NS(=O)(=O)C1CC1,Ki,[6],0.18 nM
same,IC50,Hepatitis C virus [7],8.7 nM
O=S1(=O)NCCCNc2nc(ncc2Br)Nc2cccc1c2,IC50,MCF7,200 nM
CC[C@H](C)[C@H](NC(=O)[C@@H](C[C@H](O)[C@H](CC1CCCCC1)NC(=O)[C@@H]1Cc2cn(cn2)CC(=O)N2CCC[C@H]2C(=O)N[C@@H](Cc2ccccc2)C(=O)N1)C(C)C)C(=O)NCc1ccccn1,IC50,Renin,0.29 nM
CC[C@H](C)[C@@H]1NC(=O)[C@@H](NC[C@@H](O)[C@@H]2Cc3ccc(cc3)OCCCCC(=O)N[C@@H](C(C)C)C(=O)N2)Cc2ccc(cc2)OCCCNC1=O,Ki,[3],3 nM
O=C(CCCCCC1C2=NC(Cc3ccccc3)=C(O2)C(Cc2ccccc2)CCCCn2cc(nn2)CCCN1Cc1ccccc1)NO (stereo not given),IC50,[1],6.1 µM
O=C1N[C@H](C(=O)O)CCCCCc2cccc(c2)C[C@H]1CS,IC50,Neprilysin,8 nM
same,IC50,[10],4 nM
CCC[C@@H]1NCCOc2ccccc2/C=C/CNC(=O)[C@@H](Cc2ccccc2)NC(=O)CN(C)C1=O,EC50,[11],68 nM
CC[C@H](C)[C@@H]1NC(=O)[C@@H](NC[C@@H](O)[C@H](Cc2ccc(O)cc2)NC[C@H](C(C)C)N2CCCC2=O)Cc2ccc(cc2)OCCCNC1=O,Ki,[3],1.8 nM
CC[C@H](C)[C@@H]1NCCOc2ccccc2CCCNC(=O)[C@@H](Cc2ccccc2)NC(=O)[C@@H](C)N(C)C1=O,Ki,[11],6 nM
COc1ccc2c(O[C@@H]3C[C@H]4C(=O)N[C@]5(C(=O)O)C[C@H]5/C=C\CCCCC[C@H](NC(=O)OC(C)(C)C)C(=O)N4C3)cc(-c3ccccc3)nc2c1,Ki,[12],1.4 nM
same,Ki,Hepatitis C virus [9],1 nM
same,EC50,Hepatitis C virus [7],7 nM
CCC[C@H](NC(=O)[C@@H]1C[C@@H](OCc2ccccc2)CN1C(=O)[C@@H](NC(=O)[C@@H](NC(=O)[C@H](CC(=O)O)NC(=O)[C@H](CC(=O)O)NC(C)=O)[C@@H](C)CC)C(C)C)C(=O)O (Ac-DDIV[Hyp](Bn)[Nva]-OH),IC50,[6],7 µM
CCC[C@H](NC(=O)[C@@H]1[C@H]2CCC[C@H]2CN1C(=O)[C@@H](NC(=O)[C@@H](NC(=O)c1cnccn1)C1CCCCC1)C(C)(C)C)C(=O)C(=O)NC1CC1,Ki,[13],7 nM
same,IC50,Hepatitis C virus [7],354 nM
O=C1COc2ccc(Cl)cc2CNC(=O)[C@@H]2CCCN2C(=O)[C@@H](C2CCCCC2)NC(=O)CCN1,Ki,Prothrombin,0.4 nM
CN(C)C(=O)[C@@H](NC(=O)CNC(=O)C(=O)[C@@H]1CCCCCCCCCC[C@H](NC(=O)NC(C)(C)C)C(=O)N2C[C@H]3[C@@H]([C@H]2C(=O)N1)C3(C)C)c1ccccc1,Ki,[13],6 nM
O=C1COc2ccc(Cl)cc2CNC(=O)[C@@H]2CCCN2C(=O)[C@@H](C2CCCCC2)NC(=O)CCCCN1,Ratio IC50,[4],> 2000
same,Ratio IC50,[5],> 2000
same,Ki,Prothrombin,0.4 nM
